Assay results: ChEMBL document CHEMBL1697731, “Cheminformatics analysis of assertions mined from literature that describe drug-induced liver injury in different species” (Chem Res Toxicol, 2010)
Where a SMILES comes first, the peptide text is derived from it. Bridges are numbered along the chain shown (N, C = ends). [ ]: non-standard residue; d: D form. The star is where a group is joined. Ileψ(thiazoline)Cys = CC[C@H](C)[C@H](N)C1=N[C@H](C(=O)*)CS1; dOrn = NCCC[C@@H](N)C(=O)O

What was measured:
Hepatotoxicity [1] = experiment: Literature-mined compound from Fourches et al multi-species drug-induced liver injury (DILI) dataset, effect in humans; details: human
Hepatotoxicity [2] = experiment: Literature-mined compound from Fourches et al multi-species drug-induced liver injury (DILI) dataset, effect in rodents; details: rodentia
Hepatotoxicity [3] = experiment: Literature-mined compound from Fourches et al multi-species drug-induced liver injury (DILI) dataset, effect in non-rodents

SMILES | Hepatotoxicity (Hepatotoxicity [1]) | Hepatotoxicity (Hepatotoxicity [2]) | Hepatotoxicity (Hepatotoxicity [3]) | Hepatotoxicity (Hepatotoxicity [1]; Liver) | Hepatotoxicity (Hepatotoxicity [2]; Liver) | Hepatotoxicity (Hepatotoxicity [3]; Liver)
Cc1c(N(C)C)c(=O)n(-c2ccccc2)n1C [AMINOPYRINE] | drug-induced liver injury reported | drug-induced liver injury reported | no drug-induced liver injury reported | – | – | –
Nc1ccc(C(=O)O)c(O)c1 [AMINOSALICYLIC ACID] | drug-induced liver injury reported | no drug-induced liver injury reported | no drug-induced liver injury reported | – | – | –
CCCCc1oc2ccccc2c1C(=O)c1cc(I)c(OCCN(CC)CC)c(I)c1 [AMIODARONE] | – | – | – | drug-induced liver injury reported | drug-induced liver injury reported | drug-induced liver injury reported
CN(C)CCC=C1c2ccccc2CCc2ccccc21 [AMITRIPTYLINE] | drug-induced liver injury reported | drug-induced liver injury reported | no drug-induced liver injury reported | – | – | –
CCOC(=O)C1=C(COCCN)NC(C)=C(C(=O)OC)C1c1ccccc1Cl (stereo not given) [AMLODIPINE] | no drug-induced liver injury reported | drug-induced liver injury reported | no drug-induced liver injury reported | – | – | –
CCC1(CCC(C)C)C(=O)NC(=O)NC1=O [AMOBARBITAL] | no drug-induced liver injury reported | drug-induced liver injury reported | no drug-induced liver injury reported | – | – | –
CC1(C)S[C@@H]2[C@H](NC(=O)[C@H](N)c3ccc(O)cc3)C(=O)N2[C@H]1C(=O)O.O=C([O-])[C@H]1/C(=C/CO)O[C@@H]2CC(=O)N21.[K+] [AMOXICILLIN/CLAVULANIC ACID] | drug-induced liver injury reported | no drug-induced liver injury reported | no drug-induced liver injury reported | – | – | –
CC1(C)S[C@@H]2[C@H](NC(=O)[C@H](N)c3ccc(O)cc3)C(=O)N2[C@H]1C(=O)O [AMOXICILLIN] | drug-induced liver injury reported | no drug-induced liver injury reported | no drug-induced liver injury reported | – | – | –
CC(N)Cc1ccccc1 (stereo not given) [AMPHETAMINE] | drug-induced liver injury reported | drug-induced liver injury reported | no drug-induced liver injury reported | – | – | –
C[C@@H]1[C@H](O)[C@@H](C)/C=C/C=C/C=C/C=C/C=C/C=C/C=C/[C@H](O[C@@H]2O[C@H](C)[C@@H](O)[C@H](N)[C@@H]2O)C[C@@H]2O[C@](O)(C[C@@H](O)C[C@@H](O)[C@H](O)CC[C@@H](O)C[C@@H](O)CC(=O)O[C@H]1C)C[C@H](O)[C@H]2C(=O)O [AMPHOTERICIN B] | drug-induced liver injury reported | drug-induced liver injury reported | no drug-induced liver injury reported | – | – | –
CC1(C)S[C@@H]2[C@H](NC(=O)[C@H](N)c3ccccc3)C(=O)N2[C@H]1C(=O)O [AMPICILLIN] | drug-induced liver injury reported | drug-induced liver injury reported | no drug-induced liver injury reported | – | – | –
COc1cc(NS(C)(=O)=O)ccc1Nc1c2ccccc2nc2ccccc12 [AMSACRINE] | drug-induced liver injury reported | no drug-induced liver injury reported | no drug-induced liver injury reported | – | – | –
CC(C)(C#N)c1cc(Cn2cncn2)cc(C(C)(C)C#N)c1 [ANASTROZOLE] | drug-induced liver injury reported | no drug-induced liver injury reported | no drug-induced liver injury reported | – | – | –
COc1ccc(-c2cc(=S)ss2)cc1 [ANETHOLTRITHION] | no drug-induced liver injury reported | drug-induced liver injury reported | no drug-induced liver injury reported | – | – | –
O=C1c2c(O)cccc2Cc2cccc(O)c21 [ANTHRALIN] | drug-induced liver injury reported | drug-induced liver injury reported | no drug-induced liver injury reported | – | – | –
CN1CCc2cccc3c2[C@H]1Cc1ccc(O)c(O)c1-3 [APOMORPHINE] | no drug-induced liver injury reported | drug-induced liver injury reported | no drug-induced liver injury reported | – | – | –
C=CCC1(C(C)C)C(=O)NC(=O)NC1=O [APROBARBITAL] | no drug-induced liver injury reported | drug-induced liver injury reported | no drug-induced liver injury reported | – | – | –
N=C(N)NCCC[C@H](N)C(=O)O [ARGININE] | drug-induced liver injury reported | drug-induced liver injury reported | drug-induced liver injury reported | – | – | –

SMILES | Hepatotoxicity (Hepatotoxicity [1]) | Hepatotoxicity (Hepatotoxicity [2]) | Hepatotoxicity (Hepatotoxicity [3]) | Hepatotoxicity (Hepatotoxicity [1]; Liver) | Hepatotoxicity (Hepatotoxicity [2]; Liver) | Hepatotoxicity (Hepatotoxicity [3]; Liver)
O=C1O[C@H]([C@@H](O)CO)C(O)=C1O [ASCORBIC ACID] | drug-induced liver injury reported | drug-induced liver injury reported | drug-induced liver injury reported | – | – | –
CC(=O)Oc1ccccc1C(=O)O.NCCCCC(N)C(=O)O [ASPIRIN DL-LYSINE] | drug-induced liver injury reported | drug-induced liver injury reported | no drug-induced liver injury reported | – | – | –
CC(=O)Oc1ccccc1C(=O)O [ASPIRIN] | drug-induced liver injury reported | drug-induced liver injury reported | drug-induced liver injury reported | – | – | –
CC1=C(/C=C/C(C)=C/C=C/C(C)=C/C=C/C=C(C)/C=C/C=C(C)/C=C/C2=C(C)C(=O)[C@@H](O)CC2(C)C)C(C)(C)C[C@H](O)C1=O [ASTAXANTHIN] | no drug-induced liver injury reported | drug-induced liver injury reported | no drug-induced liver injury reported | – | – | –
COC(=O)N[C@H](C(=O)N[C@@H](Cc1ccccc1)[C@@H](O)CN(Cc1ccc(-c2ccccn2)cc1)NC(=O)[C@@H](NC(=O)OC)C(C)(C)C)C(C)(C)C [ATAZANAVIR] | drug-induced liver injury reported | no drug-induced liver injury reported | no drug-induced liver injury reported | – | – | –
CC(C)NCC(O)COc1ccc(CC(N)=O)cc1 (stereo not given) [ATENOLOL] | – | – | – | drug-induced liver injury reported | no drug-induced liver injury reported | no drug-induced liver injury reported
CCCC1(CCC)CCC2(CCN(CCCN(CC)CC)C2)CC1 [ATIPRIMOD] | drug-induced liver injury reported | no drug-induced liver injury reported | no drug-induced liver injury reported | – | – | –
CNCC[C@@H](Oc1ccccc1C)c1ccccc1.Cl [ATOMOXETINE HYDROCHLORIDE] | drug-induced liver injury reported | no drug-induced liver injury reported | no drug-induced liver injury reported | – | – | –
CC(C)c1c(C(=O)Nc2ccccc2)c(-c2ccccc2)c(-c2ccc(F)cc2)n1CC[C@@H](O)C[C@@H](O)CC(=O)O [ATORVASTATIN] | – | – | – | drug-induced liver injury reported | drug-induced liver injury reported | drug-induced liver injury reported
CC(C)c1cc(C(C)C)c(CC(=O)NS(=O)(=O)Oc2c(C(C)C)cccc2C(C)C)c(C(C)C)c1 [AVASIMIBE] | drug-induced liver injury reported | drug-induced liver injury reported | no drug-induced liver injury reported | – | – | –
Nc1ncn([C@@H]2O[C@H](CO)[C@@H](O)[C@H]2O)c(=O)n1 [AZACITIDINE] | – | – | – | drug-induced liver injury reported | drug-induced liver injury reported | no drug-induced liver injury reported
Cn1cnc([N+](=O)[O-])c1Sc1ncnc2nc[nH]c12 [AZATHIOPRINE] | – | – | – | drug-induced liver injury reported | drug-induced liver injury reported | no drug-induced liver injury reported
CC[C@H]1OC(=O)[C@H](C)[C@@H](O[C@H]2C[C@@](C)(OC)[C@@H](O)[C@H](C)O2)[C@H](C)[C@@H](O[C@@H]2O[C@H](C)C[C@H](N(C)C)[C@H]2O)[C@](C)(O)C[C@@H](C)CN(C)[C@H](C)[C@@H](O)[C@]1(C)O [AZITHROMYCIN] | drug-induced liver injury reported | no drug-induced liver injury reported | no drug-induced liver injury reported | – | – | –
CC1(C)S[C@@H]2[C@H](NC(=O)[C@H](NC(=O)N3CCNC3=O)c3ccccc3)C(=O)N2[C@H]1C(=O)O [AZLOCILLIN] | drug-induced liver injury reported | no drug-induced liver injury reported | no drug-induced liver injury reported | – | – | –
C[C@H]1[C@H](NC(=O)/C(=N\OC(C)(C)C(=O)O)c2csc(N)n2)C(=O)N1S(=O)(=O)O [AZTREONAM] | drug-induced liver injury reported | no drug-induced liver injury reported | no drug-induced liver injury reported | – | – | –
CC[C@H](C)[C@H](N)C1=N[C@H](C(=O)N[C@@H](CC(C)C)C(=O)N[C@H](CCC(=O)O)C(=O)N[C@H](C(=O)N[C@H]2CCCCNC(=O)[C@H](CC(N)=O)NC(=O)[C@@H](CC(=O)O)NC(=O)[C@H](Cc3cnc[nH]3)NC(=O)[C@@H](Cc3ccccc3)NC(=O)[C@H]([C@@H](C)CC)NC(=O)[C@@H](CCCN)NC2=O)[C@@H](C)CC)CS1 [BACITRACIN] ({Ileψ(thiazoline)Cys}-L[dE]IK[dOrn]I[dF]H[dD]N; lactam 4-C) | no drug-induced liver injury reported | drug-induced liver injury reported | no drug-induced liver injury reported | – | – | –
NCC(CC(=O)O)c1ccc(Cl)cc1 (stereo not given) [BACLOFEN] | drug-induced liver injury reported | no drug-induced liver injury reported | no drug-induced liver injury reported | – | – | –
